Measured values taken from US20040092566A1, “Celecoxib prodrug” (priority 2002, published 2004).

Key:
[1] = biological target: COX-1 (Homo sapiens, UniProt P23219); conditions: background statement; cited from earlier work
COX-1, sequence (P23219 24-599): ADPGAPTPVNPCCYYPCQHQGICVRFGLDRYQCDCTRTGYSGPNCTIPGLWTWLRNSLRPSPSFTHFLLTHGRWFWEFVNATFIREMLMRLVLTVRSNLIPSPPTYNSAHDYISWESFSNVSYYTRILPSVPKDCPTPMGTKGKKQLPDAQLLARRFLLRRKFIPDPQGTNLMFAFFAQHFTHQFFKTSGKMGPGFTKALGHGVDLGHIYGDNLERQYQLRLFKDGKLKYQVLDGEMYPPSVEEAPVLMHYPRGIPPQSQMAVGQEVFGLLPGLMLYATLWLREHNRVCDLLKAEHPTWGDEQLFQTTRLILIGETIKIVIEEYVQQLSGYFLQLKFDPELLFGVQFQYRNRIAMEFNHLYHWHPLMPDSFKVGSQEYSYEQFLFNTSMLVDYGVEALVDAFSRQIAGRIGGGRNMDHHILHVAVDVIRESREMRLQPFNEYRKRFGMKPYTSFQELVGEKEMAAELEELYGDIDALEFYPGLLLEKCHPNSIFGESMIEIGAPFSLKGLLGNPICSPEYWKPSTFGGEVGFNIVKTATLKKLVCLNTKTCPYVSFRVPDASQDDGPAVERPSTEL

Structure (SMILES)	in vitro inhibitory activity against COX-1 [1]	melting point
CCC(=O)NS(=O)(=O)c1ccc(-c2c(-c3ccccc3)noc2C)cc1 [Parecoxib]	weak	
CCC(=O)NS(=O)(=O)c1ccc(-n2nc(C(F)(F)F)cc2-c2ccc(C)cc2)cc1 [compound (V), N-[[4-[5-(4-methylphenyl)-3-(trifluoromethyl)-1H-pyrazol-1-yl]phenyl]-sulfonyl]propanamide]		88.3 to 96.7 °C
CCC(=O)[N-]S(=O)(=O)c1ccc(-n2nc(C(F)(F)F)cc2-c2ccc(C)cc2)cc1.[Na+] [compound Z, 4-[5-(4-methylphenyl)-3-(trifluoromethyl)-1H-pyrazol-1-yl]-N-propionylbenzenesulfonamide, sodium salt]		> 300 °C
Cc1onc(-c2ccccc2)c1-c1ccc(S(N)(=O)=O)cc1 [valdecoxib]	weak	
